Measured values from BindingDB's records for patent US11547697 (Millennium Pharmaceuticals, 2023).

target: Phosphatidylinositol 4,5-bisphosphate 3-kinase catalytic subunit beta isoform (Homo sapiens, UniProt P42338); test: Inhibition Assay of PI3K
Sequence (P42338 whole entry, canonical isoform): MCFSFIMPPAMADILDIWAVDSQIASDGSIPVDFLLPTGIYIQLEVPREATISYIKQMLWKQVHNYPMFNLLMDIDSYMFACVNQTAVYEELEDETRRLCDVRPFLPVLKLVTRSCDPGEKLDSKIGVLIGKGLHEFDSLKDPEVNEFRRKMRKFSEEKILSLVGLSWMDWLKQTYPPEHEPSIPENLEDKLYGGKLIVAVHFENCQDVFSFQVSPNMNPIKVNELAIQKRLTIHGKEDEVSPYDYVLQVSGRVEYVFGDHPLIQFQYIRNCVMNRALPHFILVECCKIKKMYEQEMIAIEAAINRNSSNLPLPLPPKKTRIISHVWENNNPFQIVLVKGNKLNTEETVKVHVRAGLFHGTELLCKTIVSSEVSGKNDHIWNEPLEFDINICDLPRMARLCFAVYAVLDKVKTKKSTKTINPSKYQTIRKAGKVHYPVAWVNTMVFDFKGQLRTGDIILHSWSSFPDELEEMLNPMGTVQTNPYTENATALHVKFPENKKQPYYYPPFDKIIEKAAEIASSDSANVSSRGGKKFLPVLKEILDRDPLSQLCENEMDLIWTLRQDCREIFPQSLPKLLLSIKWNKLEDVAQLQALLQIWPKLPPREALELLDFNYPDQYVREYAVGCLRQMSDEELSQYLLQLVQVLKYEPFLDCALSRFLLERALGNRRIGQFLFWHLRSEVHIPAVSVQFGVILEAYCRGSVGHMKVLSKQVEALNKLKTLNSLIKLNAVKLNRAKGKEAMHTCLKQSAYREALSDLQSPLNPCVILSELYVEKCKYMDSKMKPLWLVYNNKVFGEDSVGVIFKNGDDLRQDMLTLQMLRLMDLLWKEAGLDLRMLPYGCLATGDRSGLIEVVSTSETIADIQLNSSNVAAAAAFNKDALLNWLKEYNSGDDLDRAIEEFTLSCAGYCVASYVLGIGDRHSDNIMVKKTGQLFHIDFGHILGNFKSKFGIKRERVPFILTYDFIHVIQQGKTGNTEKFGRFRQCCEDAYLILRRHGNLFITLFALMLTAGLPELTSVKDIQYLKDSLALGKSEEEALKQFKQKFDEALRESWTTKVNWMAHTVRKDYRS

Row | Compound | IC50
1 | Nc1ccc2cc(-c3ccc4nccc(-c5ccncc5)c4c3)ccc2n1 [US11547697, Compound 5] | > 10 µM
2 | Nc1ncnc2ccc(-c3ccc4nccc(-c5ccncc5)c4c3)cc12 [US11547697, Compound 8] | > 10 µM
3 | CS(=O)(=O)N1CCN(C(=O)c2cnc3ccc(-c4ccc5oc(N)nc5c4)cn23)CC1 [US11547697, Compound 112] | > 10 µM
4 | Nc1nc2ccc(-c3ccc4ncc(C(=O)N5CCOCC5)n4c3)cc2s1 [US11547697, Compound 125] | > 10 µM
5 | Nc1nc2cc(-c3ccc4ncc(C(=O)Nc5cccnc5)n4c3)ccc2o1 [US11547697, Compound 190] | > 10 µM
6 | Nc1nc2cc(-c3ccc4ncc(N5CCN(C(=O)C6(N)CC6)CC5)nc4c3)ccc2o1 [US11547697, Compound 226] | > 10 µM
7 | CC(=O)Nc1ncc(-c2ccc3oc(N)nc3c2)s1 [US11547697, Compound 235] | > 10 µM
8 | Cc1ccc(NC(=O)c2cnc3ccc(-c4ccc5oc(N)nc5c4)cn23)cn1 [US11547697, Compound 294] | > 10 µM
9 | Nc1nc2cc(-c3ccc4ncc(N5CC(N6CCC(O)CC6)C5)nc4c3)ccc2o1 [US11547697, Compound 341] | > 10 µM
10 | COc1ncc(-c2ccc3ncc(C(=O)N4CCOCC4)n3c2)cc1NS(=O)(=O)c1ccccc1 [US11547697, Compound 420] | > 10 µM

target: T1, Phosphatidylinositol 4,5-bisphosphate 3-kinase catalytic subunit delta isoform (Homo sapiens, UniProt O00329); test: Inhibition Assay of PI3K
T1 sequence (O00329 whole entry): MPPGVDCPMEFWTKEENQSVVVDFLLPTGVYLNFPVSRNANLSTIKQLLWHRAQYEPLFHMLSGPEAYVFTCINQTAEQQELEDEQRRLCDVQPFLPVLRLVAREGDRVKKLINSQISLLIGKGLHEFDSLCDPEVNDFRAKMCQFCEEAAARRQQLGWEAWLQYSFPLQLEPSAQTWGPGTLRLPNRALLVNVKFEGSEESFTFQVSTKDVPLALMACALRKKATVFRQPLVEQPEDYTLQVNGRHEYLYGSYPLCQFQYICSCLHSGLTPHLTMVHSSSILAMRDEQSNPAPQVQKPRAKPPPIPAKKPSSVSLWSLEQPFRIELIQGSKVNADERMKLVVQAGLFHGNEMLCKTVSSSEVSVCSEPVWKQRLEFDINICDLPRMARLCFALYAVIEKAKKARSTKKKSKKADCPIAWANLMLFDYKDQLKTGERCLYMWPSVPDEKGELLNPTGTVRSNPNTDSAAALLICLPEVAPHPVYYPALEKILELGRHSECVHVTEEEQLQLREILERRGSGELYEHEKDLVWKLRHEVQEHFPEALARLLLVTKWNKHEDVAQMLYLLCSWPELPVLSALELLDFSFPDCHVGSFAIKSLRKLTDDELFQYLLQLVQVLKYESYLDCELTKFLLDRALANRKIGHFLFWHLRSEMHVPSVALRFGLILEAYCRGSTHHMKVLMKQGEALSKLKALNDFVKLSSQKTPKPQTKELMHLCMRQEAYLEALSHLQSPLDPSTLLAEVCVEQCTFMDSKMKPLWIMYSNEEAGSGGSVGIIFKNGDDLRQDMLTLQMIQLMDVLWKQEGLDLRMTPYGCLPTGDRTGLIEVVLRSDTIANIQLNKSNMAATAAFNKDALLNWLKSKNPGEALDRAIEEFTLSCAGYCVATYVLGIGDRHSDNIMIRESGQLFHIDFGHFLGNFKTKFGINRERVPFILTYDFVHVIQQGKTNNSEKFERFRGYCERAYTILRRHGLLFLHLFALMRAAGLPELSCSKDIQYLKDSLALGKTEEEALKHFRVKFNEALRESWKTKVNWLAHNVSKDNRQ

Row | Compound | IC50
11 | Nc1nc2cc(-c3ccc4nccc(NC5CCOCC5)c4c3)ccc2o1 [US11547697, Compound 32] | > 10 µM
12 | Nc1nc2cc(-c3ccc4nccn4c3)ccc2o1 [US11547697, Compound 40] | > 10 µM
13 | Cc1nc2ccc(-c3ccc4oc(N)nc4c3)nn2c1-c1ccncc1 [US11547697, Compound 56] | > 10 µM
14 | Nc1nc2cc(-c3ccc4ncc(N5CCOCC5)n4n3)ccc2o1 [US11547697, Compound 57] | > 10 µM
15 | Nc1nc2cc(-c3ccc4ncc(N5CCOCC5)nc4c3)ccc2o1 [US11547697, Compound 64] | > 10 µM
16 | Nc1nc2cc(-c3ccc4ncc(=O)[nH]c4c3)ccc2o1 [US11547697, Compound 72] | > 10 µM
17 | CC(C)N1CCC(n2cnc3ccc(-c4ccc5oc(N)nc5c4)cc3c2=O)CC1 [US11547697, Compound 74] | > 10 µM
18 | Nc1nc2cc(-c3ccc4ncn(C5CCNCC5)c(=O)c4c3)ccc2o1 [US11547697, Compound 75] | > 10 µM
19 | Nc1nc2cc(-c3ccc4ncc(C(=O)N5CCOCC5)n4n3)ccc2o1 [US11547697, Compound 105] | > 10 µM
20 | Nc1nc2cc(-c3ccc4ncc(-c5cnn(CCO)c5)nc4c3)ccc2o1 [US11547697, Compound 108] | > 10 µM
21 | CN1CCN(c2cnc3ccc(-c4ccc5nc(N)sc5c4)cc3n2)CC1 [US11547697, Compound 115] | > 10 µM
22 | Nc1nc2cc(-c3ccc4ncc(N5CCOCC5)nc4c3)ccc2s1 [US11547697, Compound 116] | > 10 µM
23 | Nc1nc2ccc(-c3ccc4ncc(N5CCOCC5)nc4c3)cc2o1 [US11547697, Compound 117] | > 10 µM
24 | CN1CCN(c2cnc3ccc(-c4ccc5nc(N)oc5c4)cc3n2)CC1 [US11547697, Compound 118] | > 10 µM
25 | Nc1nc2ccc(-c3ccc4ncc(C(=O)N5CCOCC5)n4c3)cc2o1 [US11547697, Compound 124] | > 10 µM
26 | Nc1nc2cc(-c3ccc4ncc(C(=O)N5CCOCC5)n4c3)ccc2s1 [US11547697, Compound 126] | > 10 µM
27 | CN1CCN(c2cnc3ccc(-c4ccc5sc(N)nc5c4)cc3n2)CC1 [US11547697, Compound 127] | > 10 µM
28 | Nc1nc2cc(-c3ccc4ncc(N5CCNC(=O)C5)nc4c3)ccc2o1 [US11547697, Compound 135] | > 10 µM
29 | CN1CCCN(c2cnc3ccc(-c4ccc5oc(N)nc5c4)cc3n2)CC1 [US11547697, Compound 136] | > 10 µM
30 | CN1CCN(C(=O)c2cnc3ccc(-c4ccc5nc(N)oc5c4)cn23)CC1 [US11547697, Compound 145] | > 10 µM
31 | CN(CCN1CCOCC1)c1cnc2ccc(-c3ccc4oc(N)nc4c3)cc2n1 [US11547697, Compound 166] | > 10 µM
32 | Nc1nc2cc(-c3ccc4ncn(CCO)c(=O)c4c3)ccc2o1 [US11547697, Compound 184] | > 10 µM
33 | Nc1nc2cc(-c3ccc4ncc(-c5ccccn5)nc4c3)ccc2o1 [US11547697, Compound 195] | > 10 µM
34 | Nc1nc2cc(-c3ccc4ncc(C(=O)N5CCCCC5)n4c3)ccc2o1 [US11547697, Compound 196] | > 10 µM
35 | CC1CN(C(=O)c2cnc3ccc(-c4ccc5oc(N)nc5c4)cn23)CCO1 (stereo not given) [US11547697, Compound 201] | > 10 µM
36 | Nc1nc2cc(-c3ccc4nnc(-c5ccncc5)n4c3)ccc2o1 [US11547697, Compound 229] | > 10 µM
37 | CC(=O)Nc1nc2ccc(-c3ccc4nc(N)oc4c3)cc2s1 [US11547697, Compound 242] | > 10 µM
38 | Nc1nc2ccc(-c3ccc4nc(N)sc4c3)cc2o1 [US11547697, Compound 243] | > 10 µM

Row | Compound | IC50
39 | Nc1cn2cc(-c3ccc4oc(N)nc4c3)ccc2n1 [US11547697, Compound 245] | > 10 µM
40 | Nc1nc2cc(-c3ccc4ncc(N5CCN(C6CC6)CC5)nc4c3)ccc2o1 [US11547697, Compound 261] | > 10 µM
41 | COCCn1cnc2ccc(-c3ccc4oc(N)nc4c3)cc2c1=O [US11547697, Compound 272] | > 10 µM
42 | Nc1nc2cc(-c3ccc4ncn(CCN5CCOCC5)c(=O)c4c3)ccc2o1 [US11547697, Compound 289] | > 10 µM
43 | C[C@H]1CN(c2cnc3ccc(-c4ccc5nc(N)sc5c4)cc3n2)CCN1 [US11547697, Compound 308] | > 10 µM
44 | C[C@H]1CN(c2cnc3ccc(-c4ccc5nc(N)oc5c4)cc3n2)CCN1 [US11547697, Compound 309] | > 10 µM
45 | Nc1nc2cc(-c3ccc4ncc(C(=O)N(CCO)CCO)n4c3)ccc2o1 [US11547697, Compound 316] | > 10 µM
46 | Nc1nc2cc(-c3ccc4ncc(N5CC(n6cccn6)C5)nc4c3)ccc2o1 [US11547697, Compound 318] | > 10 µM
47 | Nc1nc2cc(-c3ccn4ncc(C(=O)N5CCCC5)c4c3)ccc2o1 [US11547697, Compound 346] | > 10 µM
48 | Nc1nc2cc(-c3ccn4ncc(C(=O)N5CCOCC5)c4c3)ccc2o1 [US11547697, Compound 347] | > 10 µM
49 | Cc1cc(-c2ccc3ncc(C(=O)N4CCOCC4)n3c2)cc2nc(N)oc12 [US11547697, Compound 364] | > 10 µM
50 | CN(C)C1CN(c2cnc3ccc(-c4ccc5oc(N)nc5c4)cc3n2)C1 [US11547697, Compound 366] | > 10 µM
51 | COCCN1CCN(c2cnc3ccc(-c4ccc5oc(N)nc5c4)cc3n2)CC1 [US11547697, Compound 387] | > 10 µM
52 | Nc1nc2cc(-c3ccc4ncc(C(=O)N5CCOCC5)n4c3)cnc2o1 [US11547697, Compound 400] | > 10 µM
53 | Nc1nc2cc(-c3ccc4c(N)n[nH]c4c3)ccc2o1 [US11547697, Compound 428] | > 10 µM
54 | CC(=O)Nc1n[nH]c2cc(-c3ccc4oc(N)nc4c3)ccc12 [US11547697, Compound 430] | > 10 µM
55 | Nc1nc2cc(-c3cc(F)c4oc(N)nc4c3)ccc2o1 [US11547697, Compound 432] | > 10 µM
56 | CC(=O)Nc1nc2cc(-c3cc(F)c4oc(N)nc4c3)ccc2s1 [US11547697, Compound 435] | > 10 µM
57 | Nc1nc2cc(-c3ccc4sc(N)nc4c3)cc(F)c2o1 [US11547697, Compound 437] | > 10 µM
58 | Cc1cc(-c2ccc3nc(N)oc3c2)cn2c(C(=O)N3CCOCC3)cnc12 [US11547697, Compound 449] | > 10 µM
59 | Nc1nc2cc(-c3ccc4ncc(C(=O)N5CC(F)C5)n4c3)ccc2o1 [US11547697, Compound 468] | > 10 µM
60 | C[C@H]1COCCN1C(=O)c1cnc2ccc(-c3ccc4oc(N)nc4c3)cn12 [US11547697, Compound 483] | > 10 µM
61 | Nc1nc2cc(-c3ccc4ncc(C(=O)N5CCn6cncc6C5)n4c3)ccc2o1 [US11547697, Compound 493] | > 10 µM
62 | Nc1nc2cc(-c3ccc4ncc(C(=O)N5CC6(C5)OCCO6)n4c3)ccc2o1 [US11547697, Compound 494] | > 10 µM
63 | C[C@@H]1COCCN1C(=O)c1cnc2ccc(-c3ccc4oc(N)nc4c3)cn12 [US11547697, Compound 495] | > 10 µM
64 | Nc1nc2c(-c3ccc4ncc(C(=O)N5CCOCC5)n4c3)cccc2o1 [US11547697, Compound 496] | > 10 µM
65 | Nc1nc2cc(-c3ccc4ncc(C(=O)N5CC6CCC(C5)O6)n4c3)ccc2o1 [US11547697, Compound 504] | > 10 µM
